# According to patent publication US12103916B2, “Antifungal compounds” (University of Kentucky Research Foundation, priority 2016, dated 2024):
# Like-named read-outs stand apart in the source and are kept apart here.
# Legend:
# [1] = test system: C. albicans ATCC MYA-2310(S); assay: MIC determination, strain E; type: cell-based, Candida albicans; conditions: strain E, AmB; for MIC: Candida albicans
# Procedure: (§1) The antifungal activity of our new azole compounds 1-9 and 24-41 was first evaluated against a panel of seven Candida albicans strains (A-G), three non-albicans Candida strains […], and three Aspergillus strains (K-M) in a concentration range of 0.03-31.2 μg/mL (Table 1). […] For all of our azole derivatives we report their MIC-0 values against C. albicans ATCC 10231 (strain A) and all Aspergillus strains (K-M), which correspond to complete growth inhibition of these fungi. […] The commercially available antifungals AmB, FLC, ITC, POS, and VOR were used as reference drugs for comparison. The MIC values presented for these five control drugs were either tested herein or correspond to our previously published data^5, 16 as indicated in Table 1.
# (§2) Antifungal activity in the absence or presence of serum. The antifungal activity of the newly prepared alkylated piperazine/morpholine-azole hybrids 16-28, of intermediate 14 that we used to verify that only final compounds exert antifungal activity, as well as that of alkylated piperazine/morpholine derivatives 1-10 were first evaluated against a panel of seven C. albicans (ATCC 10231 (A), ATCC 64124(R) (B), ATCC MYA-2876(S) (C), ATCC 90819(R) (D), ATCC MYA-2310(S) (E), ATCC MYA-1237(R) (F), and ATCC MYA-1003(R) (G)), three non-albicans Candida (C. glabrata ATCC 2001 (H), C. krusei ATCC 6258 (I), and C. parapsilosis ATCC 22019 (J)), and three Aspergillus (A. flavus ATCC MYA-3631 (K), A. nidulans ATCC 38163 (L), and A. terreus ATCC MYA-3633 (M)) strains using a concentration range of 0.03-31.3 μg/mL (Table 2).
# (§3) Commercially available antifungal agents such as AmB, CAS, FLC, and VOR were used as positive controls for comparison. […] It is important to note that all comparisons to follow will be done by using the MIC values reported in μg/mL as the data were collected that way. However, we also present in parentheses in Table 2 the corresponding values in micromolar.
# (§4) We used the commercially available antifungal agents such as AmB, caspofungin (CAS), FLC, and VOR as positive controls for comparison. For derivatives 5-16 as well as the reference drugs AmB and CAS, we reported MIC-0 values, which correspond to no visible growth. […] In this manuscript, we performed all activity comparisons by using the MIC values reported in μg/mL (Note: the corresponding MIC values are also provided in μM into parentheses in Tables 1, 2, S1, and S2).
# [2] = test system: Candida albicans ATCC 10231; assay: MIC determination, strain A; type: cell-based; conditions: for MIC: Candida albicans, ATCC10231
# Source text: (§5) For all of our azole derivatives we report their MIC-0 values against C. albicans ATCC 10231 (strain A) and all Aspergillus strains (K-M), which correspond to complete growth inhibition of these fungi. […] The MIC values presented for these five control drugs were either tested herein or correspond to our previously published data^5, 16 as indicated in Table 1.
# (§6) Antifungal activity in the absence or presence of serum.
# (§7) It is important to note that all comparisons to follow will be done by using the MIC values reported in μg/mL as the data were collected that way. However, we also present in parentheses in Table 2 the corresponding values in micromolar.
# (§8) In this manuscript, we performed all activity comparisons by using the MIC values reported in μg/mL (Note: the corresponding MIC values are also provided in μM into parentheses in Tables 1, 2, S1, and S2).
# [3] = test system: Aspergillus terreus ATCC MYA-3633; assay: MIC determination, strain M; type: cell-based; conditions: for MIC: Aspergillus terreus
# Source text: as §5, §6, §7, §8
# [4] = test system: C. albicans ATCC MYA-2876(S); assay: MIC determination, strain C; type: cell-based, Candida albicans; conditions: strain C, AmB; for MIC: Candida albicans
# Procedure: as §1, §2, §3, §4
# [5] = test system: C. albicans ATCC MYA-1003(R); assay: MIC determination, strain G; type: cell-based, Candida albicans; conditions: strain G, AmB; for MIC: Candida albicans
# Source text: as §5, §6, §7, §8
# [6] = test system: Aspergillus flavus ATCC MYA-3631; assay: MIC determination, strain K; type: cell-based; conditions: Table 2, all compounds and controls
# Source text: as §5, §6, §7, §8
# [7] = test system: Candida parapsilosis ATCC 22019; assay: MIC determination, strain J; type: cell-based; conditions: Lodderomyces parapsilosis, ATCC22019, Table 2, strain J, Ex.2 compounds, AmB, CAS
# Procedure: as §1, §2, §3, §4
# Candida krusei ATCC 6258 = assay: MIC determination, strain I; type: cell-based; conditions: strain I, AmB; for MIC: Pichia kudriavzevii, ATCC6258
# Procedure: as §1, §2, §3, §4
# [8] = test system: C. albicans ATCC 90819(R); assay: MIC determination, strain D; type: cell-based, Candida albicans; conditions: strain D, AmB; for MIC: Candida albicans, ATCC90819
# Procedure: as §1, §2, §3, §4
# [9] = test system: Candida glabrata ATCC 2001; assay: MIC determination, strain H; type: cell-based; conditions: strain H, AmB; for MIC: Nakaseomyces glabratus, ATCC2001
# Procedure: as §1, §2, §3, §4
# C. albicans ATCC 64124 = assay: MIC determination, strain B; type: cell-based, Candida albicans; conditions: strain B, AmB; for MIC: Candida albicans, ATCC64124
# Procedure: as §1, §2, §3, §4
# [10] = test system: Aspergillus nidulans ATCC 38163; assay: MIC determination, strain L; type: cell-based; conditions: ATCC38163, Table 2, strain L, all compounds and controls
# Source text: as §5, §6, §7, §8
# [11] = test system: C. albicans ATCC MYA-1237(R); assay: MIC determination, strain F; type: cell-based, Candida albicans; conditions: strain F, AmB; for MIC: Candida albicans
# Source text: as §5, §6, §7, §8
# BEAS-2B cell line = assay: Cytotoxicity assay, BEAS-2B; conditions: Ex.1 series, 15.6 μg/mL
# Procedure: The positive control consisted of cells treated with Triton X-100® (TX, 12.5% v/v). The negative control consisted of cells treated with DMSO (no drug).
# The positive control consisted of cells treated with Triton X-100® (TX, 20% v/v, pink). The negative control consisted of cells treated with DMSO (no drug, green). The experiments were performed in duplicate.
# In vitro cytotoxicity assay.
# [12] = Table 2, Ex.2 compounds, CAS, read-out: MIC (MIC-0)
# [13] = Table 2, Ex.2 compounds, CAS, read-out: MIC (MIC-0), in parentheses
# [14] = read-out: MIC (MIC-0), in parentheses
# [15] = Table 2, all compounds and controls
compound,measurement,setting,value
"CC[C@H](C)C[C@H](C)CCCCCCCCC(=O)N[C@H]1C[C@@H](O)[C@@H](NCCN)NC(=O)[C@@H]2[C@@H](O)CCN2C(=O)[C@H]([C@H](O)CCN)NC(=O)[C@H]([C@H](O)[C@@H](O)c2ccc(O)cc2)NC(=O)[C@@H]2C[C@@H](O)CN2C(=O)[C@H]([C@@H](C)O)NC1=O [CAS, caspofungin]",MIC,[1]; [12],0.12 µg/mL
same,MIC,[1]; [13],0.1 µM
same,MIC,"[2]; Table 2, strain A, Ex.2 compounds 1-10, 14, 16-28, AmB, CAS, no visible growth, read-out: MIC (MIC-0)",0.975 µg/mL
same,MIC,"[2]; Table 2, strain A, Ex.2 compounds, AmB, CAS, read-out: MIC (MIC-0), in parentheses",0.8 µM
same,MIC,"[3]; Table 2, all compounds and controls, read-out: MIC (MIC-0)",> 31.3 µg/mL
same,MIC,"[3]; Table 2, all compounds and controls, read-out: MIC (MIC-0), in parentheses",> 25.8 µM
same,MIC,[4]; [12],0.06 µg/mL
same,MIC,[4]; [13],0.05 µM
same,MIC,[5]; [12],0.48 µg/mL
same,MIC,[5]; [13],0.4 µM
same,MIC,[6]; read-out: MIC (MIC-0),> 31.3 µg/mL
same,MIC,[6]; [14],> 25.8 µM
same,MIC,[7]; read-out: MIC (MIC-0),1.95 µg/mL
same,MIC,[7]; [14],1.6 µM
same,MIC,Candida krusei ATCC 6258; [12],0.48 µg/mL
same,MIC,Candida krusei ATCC 6258; [13],0.4 µM
same,MIC,[8]; [12],0.12 µg/mL
same,MIC,[8]; [13],0.1 µM
same,MIC,[9]; [12],0.06 µg/mL
same,MIC,[9]; [13],0.05 µM
same,MIC,C. albicans ATCC 64124; [12],0.24 µg/mL
same,MIC,C. albicans ATCC 64124; [13],0.2 µM
same,MIC,[10]; read-out: MIC (MIC-0),> 31.3 µg/mL
same,MIC,[10]; [14],> 25.8 µM
same,MIC,[11]; [12],0.24 µg/mL
same,MIC,[11]; [13],0.2 µM
"C[C@@H]1[C@H](O)[C@@H](C)/C=C/C=C/C=C/C=C/C=C/C=C/C=C/[C@H](O[C@@H]2O[C@H](C)[C@@H](O)[C@H](N)[C@@H]2O)C[C@@H]2O[C@](O)(C[C@@H](O)C[C@@H](O)[C@H](O)CC[C@@H](O)C[C@@H](O)CC(=O)O[C@H]1C)C[C@H](O)[C@H]2C(=O)O [AmB, amphotericin B]",MIC (MIC-0),[1]; Table 1,1.95 µg/mL
same,MIC (MIC-0),"[1]; Table 2, Ex.2 compounds, CAS",1.95 µg/mL
same,"MIC (MIC-0), in parentheses","[1]; Table 2, Ex.2 compounds, CAS",(2.1) micromolar
same,MIC (MIC-0),"[2]; Table 1, strain A, Ex.1 compounds 1-9, 24-41 and AmB, complete growth inhibition",3.9 µg/mL
same,MIC (MIC-0),"[2]; Table 2, strain A, Ex.2 compounds 1-10, 14, 16-28, AmB, CAS, no visible growth",3.9 µg/mL
same,"MIC (MIC-0), in parentheses","[2]; Table 2, strain A, Ex.2 compounds, AmB, CAS",(4.2) micromolar
same,"MIC, Candida albicans ATCC 10231 (A) (+10% FBS)","[2]; Table 3, Ex.2 compounds, +10% FBS",7.8 µg/mL
same,"MIC, Candida albicans ATCC 10231 (A) (no FBS)","[2]; Table 3, Ex.2 compounds, no FBS",3.9 µg/mL
same,MIC (MIC-0),"[3]; Table 1, Ex.1 compounds and AmB, complete growth inhibition",3.9 µg/mL
same,MIC (MIC-0),[3]; [15],3.9 µg/mL
same,"MIC (MIC-0), in parentheses",[3]; [15],(4.2) micromolar
same,MIC (MIC-0),[4]; Table 1,1.95 µg/mL
same,MIC (MIC-0),"[4]; Table 2, Ex.2 compounds, CAS",1.95 µg/mL
same,"MIC (MIC-0), in parentheses","[4]; Table 2, Ex.2 compounds, CAS",(2.1) micromolar
same,MIC (MIC-0),[5]; Table 1,3.9 µg/mL
same,MIC (MIC-0),"[5]; Table 2, Ex.2 compounds, CAS",3.9 µg/mL
same,"MIC (MIC-0), in parentheses","[5]; Table 2, Ex.2 compounds, CAS",(4.2) micromolar
same,cell survival,BEAS-2B cell line,30%
same,MIC (MIC-0),Candida krusei ATCC 6258; Table 1,3.9 µg/mL
same,MIC (MIC-0),"Candida krusei ATCC 6258; Table 2, Ex.2 compounds, CAS",3.9 µg/mL
same,"MIC (MIC-0), in parentheses","Candida krusei ATCC 6258; Table 2, Ex.2 compounds, CAS",(4.2) micromolar
same,MIC (MIC-0),[8]; Table 1,0.975 µg/mL
same,MIC (MIC-0),"[8]; Table 2, Ex.2 compounds, CAS",0.975 µg/mL
same,"MIC (MIC-0), in parentheses","[8]; Table 2, Ex.2 compounds, CAS",(1.1) micromolar
same,MIC (MIC-0),[9]; Table 1,1.95 µg/mL
same,MIC (MIC-0),"[9]; Table 2, Ex.2 compounds, CAS",1.95 µg/mL
same,"MIC (MIC-0), in parentheses","[9]; Table 2, Ex.2 compounds, CAS",(2.1) micromolar
same,MIC (MIC-0),C. albicans ATCC 64124; Table 1,3.9 µg/mL
same,MIC (MIC-0),"C. albicans ATCC 64124; Table 2, Ex.2 compounds, CAS",3.9 µg/mL
same,"MIC (MIC-0), in parentheses","C. albicans ATCC 64124; Table 2, Ex.2 compounds, CAS",(4.2) micromolar
same,MIC (MIC-0),[11]; Table 1,3.9 µg/mL
same,MIC (MIC-0),"[11]; Table 2, Ex.2 compounds, CAS",3.9 µg/mL
same,"MIC (MIC-0), in parentheses","[11]; Table 2, Ex.2 compounds, CAS",(4.2) micromolar
